From patent US5321023A, “Pyridoindolobenzodiazepines and derivatives as antipsychotics” (The Du Pont Merck Pharmaceutical Co., priority 1992, dated 1994)

Tested on: rat
Assay: Conditioned Avoidance Responding in Rat
Format: in vivo, rat (male CDF)
Settings: inhibition of conditioned avoidance responding, oral, tested 30-360 minutes after administration, % of vehicle control, read-out: Peak ED50
Excerpt: Conditioned Avoidance Responding in Rat
The procedure utilized is a modification of the procedure of Cook and Weidley (Ann. NY Acad Sci.66: 740-752, 1957).
Apparatus: A Coulbourn Instruments large modular test cage (25×30×30 cm) with a pole suspended from the center of the ceiling and a stainless steel grid floor. A 0.75 mA pulsed current (250 msec on, 750 msec off) is delivered to the grid floor by a Coulbourn Instruments programmable shocker.
Animals: Male CDF rats are purchased from Charles River Breeding Laboratories (Wilmington, Mass.).
Test Procedure: Each trial lasts 25 seconds. Ten seconds after the rat is placed in the testing apparatus, footshock is delivered for 15 seconds. The rat is immediately removed from the testing apparatus. If the rat climbs the pole within the first 10 seconds, footshock is avoided and an avoidance response is recorded. If the rat climbs the pole during the footshock period, an escape response is recorded. If the animal fails to climb the pole during the 25 second trial period, an escape failure is recorded.
Drug testing is initiated after rats are well trained to consistently avoid footshock. Rats are tested for conditioned avoidance responding at various time intervals (30-360 minutes) after oral administration of test compound.
For each dose of test compound, inhibition of conditioned avoidance responding is expressed as a percentage of the corresponding Drug Vehicle (control) value. The percent antagonism is used to calculate ED50 values when appropriate.

SMILES | ED50 [mg/kg]
Cc1cc2c3c(c1)c1c(n3-c3ccc(Cl)cc3NC2=O)CCN(C)C1 [Example 1, 11-chloro-1,2,3,4,8,9-hexahydro-3,6-dimethylpyrido[4',3':2,3]indolo[1,7-ab][1,5]benzodiazepin-8(9H)-one] | ≤ 20
Cc1cc2c3c(c1)c1c(n3-c3ccc(C(F)(F)F)cc3NC2=O)CCN(C)C1 [Example 3] | 20 to 50
Cc1cc2c3c(c1)c1c(n3-c3ccc(Cl)cc3NC2)CCN(C)C1 [Example 23, 11-chloro-1,2,3,4,8,9-hexahydro-3,6-dimethylpyrido[4',3':2,3]indolo[1,7-ab][1,5]benzodiazepine] | ≤ 20
Cc1cc2c3c(c1)c1c(n3-c3ccc(C(F)(F)F)cc3NC2)CCN(C)C1 [Example 25] | ≤ 20
